The target in series [1] is T1, 5-HT2B Rezeptoren von Schweinelungenarterien (Sus scrofa, UniProt F1SMV8). The series is described as follows: Functional 5-HT2B receptor assay: 5-HT-induced relaxation of PGF2α-precontracted pig pulmonary arteries. It counts as biochemical, Schwein. Particulars: conditions as in Beispiel 1.
Excerpt: (§1) Dabei bedeutet der pA2 -Wert den negativ dekadischen Logarithmus der Konzentration eines Antagonisten, die es erforderlich macht, die Agonisten-Konzentration zu verdoppeln, um den Ausgangseffekt des Agonisten ohne Antagonisten wiederherzustellen.
Die vaskuläre Reaktion in Präparationen der Pulmonalarterien des Schweins, die mittels PGF2α vorkontrahiert waren, wurden als Assay für die spezifische Interaktion mit 5-HT2B-Rezeptoren verwendet (siehe Fig. 1A).
Series [2] addresses 5-HT2A Rezeptoren von Schweineherzkranzarterien (Sus scrofa, UniProt P50129). The series is described as follows: Functional 5-HT2A receptor assay: 5-HT-induced contraction of pig coronary arteries. Format: biochemical, Schwein.
Excerpt: as §1
Series [3] is described as follows: Antioxidative effect / uptake of oxygen radicals. Particulars: per single molecule. It counts as physicochemical. The text has this:
Die massenspektroskopisch in der Mehrheit nachweisbaren Reaktionsprodukte enthalten 2 Sauerstoffatome; es lassen sich aber auch Verbindungen mit 3, 4 und 5 Sauerstoff-Atomen nachweisen.
Ein typisches Charakteristikum von Massenspektra ist, dass Gipfel von [M+H]++18, d. h. Zusatz von Wasser, oder [M+H]++16, d.h. Zusatz eines Sauerstoffatoms, gefunden werden, wie auch Kombinationen von Wasser und Sauerstoffatomen. Wegen der niedrigen in den Entnahmeproben enthaltenen Substanzmengen und der Kurzlebigkeit der Reaktionsprodukte war deren Isolierung zur Strukturaufklärung nicht möglich. Das Lisuridmolekül weist mehrere Positionen auf, an denen Wasser und/oder ein Sauerstoffatom gebunden werden können (Fig. 4).

A short description of series [4]: Stability of lisuride dissolved in water (HPLC). Particulars: room temperature, HPLC (Fig. 3A).
The target of series [5] is T1, 5-HT2B Rezeptoren von Schweinelungenarterien. Particulars: footnote d: from Glusa and Pertz, Brit. J. Pharmacol. 130, 692-698, 2000; cited from earlier work.
In series [6] the test system is monocrotalin-induzierten Lungenhochdruck. In words: Monocrotaline-induced pulmonary hypertension in the rat. It counts as in vivo, Sprague-Dawley Ratten. Particulars: days 15-28, mean ± SEM (N=6). The text has this:
Monocrotalin (MCT) ist ein Toxin aus Pflanzen der Spezies Crotalaria, welches nach einer einzigen Injektion in Ratten die Endothelzellen der pulmonalen Arterien schädigt mit folgender Hypertrophie der glatten Gefässmuskulatur und persistierendem schwerem pulmonalem Hochdruck. Die MCTinduzierte pulmonale Hypertension der Ratte ist ein gut etabliertes und validiertes Modell der humanen pulmonalen Hypertension und alle heute zugelassenen Therapeutika haben eine Wirkung in diesem Modell gezeigt, zumindest wenn sie vor dem toxisch bedingten Gewebeumbau angewendet wurden.
MCT (60mg/kg) wurde bei männlichen Sprague-Dawley Ratten als Einzelinjektion subkutan verabreicht und ein gleiches Volumen isotonischer Kochsalzlösung bei den Kontrolltieren injiziert. […] Dabei wurde die genannte Dosis der jeweiligen Testsubstanz morgens und abends in einem Volumen von je 2.0 ml an Gruppen von jeweils 6 Tieren gegeben, die an Tag 1 des Experiments mit MCT behandelt worden waren. Die gleiche Menge Wasser wurde den Kontrolltieren zugeführt.
Am Tag 28 des Experiments, zwei Stunden nach letztmaliger Substanzgabe, wurden die Tiere narkotisiert unter Verwendung von Pentobarbital. Eine Tracheotomie wurde durchgeführt und die Tiere unter Isofluran-Anästhesie beatmet. Der mittlere arterielle Systemdruck und der systolische Druck im rechten Herzventrikel wurden gemessen. Nach den Druckmessungen wurden die Tiere mit physiologischer Kochsalzlösung perfundiert und die rechte Lunge wurde zur Bestimmung des Kollagengehalts entfernt.
Die sc-Injektion von MCT, wie oben beschrieben, führt zu einer schweren Schädigung des pulmonalen Gefässendothels sowie überschießender Produktion von Bindegewebe und Entwicklung einer pulmonalen Hypertonie. Anhäufung von Kollagen, gemessen als Hydroxyprolin-Gehalt des Lungengewebes, und Anstieg des rechtsventrikulären systolischen Drucks reflektieren die beschriebenen strukturellen und funktionalen Veränderungen. Die möglichen therapeutischen und präventiven Effekte von Lisurid bzw. Tergurid wurden in dem vorgestellten Modell der pulmonalen Hypertension gemessen. […]

Series [7] has as its system Menschliche glatte Muskelzellen mesenterialen Ursprungs. In words: 5-HT-stimulated proliferation of human smooth muscle cells (3H-thymidine uptake). Format: cell-based. Particulars: 10 µmol/l test substance, growth stimulated with 10-8 mol/l 5-HT; Fig. 2.
Excerpt: Menschliche glatte Muskelzellen mesenterialen Ursprungs (Promo Cell) wurden entsprechend den Empfehlungen des Herstellers bis zur Bildung geschlossener Monolayers in 6 Platten mit PromoCell-Kulturmedium vermehrt und dann im gleichen Medium auf 24-Vertiefungsträgern für eine Zellzahl von 5x104 Zellen/Ansatz ausgesät. […] Zur Bestimmung des Zellwachstums wurde dann 3H-Thymidin (Amersham) zu den Zellkulturen hinzugegeben und diese für 24 Stunden inkubiert. Nach der Adhäsion der Zellen wurde das Kulturmedium durch ein Standardmedium mit 0.2% fetalem Kalbsserum zum Wachstumsstopp ersetzt und erneut 48 Stunden lang inkubiert.
Um antiproliferative Wirkungen der beschriebenen Substanzen zu testen, wurden die Zellkulturen dann zunächst mit einer Konzentration von 10 µmol/l der Prüfsubstanzen präinkubiert. […] Zur Messung des Wachstums der Zellen wurde dann 3H-Thymidin (Amersham) den Kulturen zugefügt und diese für 24 Stunden inkubiert. Danach erfolgten 2 Inkubationen in eisgekühlter Kochsalzlösung mit einem Phosphat-Puffer und danach 30 min Inkubation in eisgekühlter 10%iger Trichlor-Essigsäure bei 4°C. Die Zellen wurden dann in 0.1 molarer NaOH-Lösung inkubiert (0.5 ml/Inkubationsgefäss). Nach Neutralisierung mit Essigsäure wurde die 3H -Thymidin-Aufnahme mit Flüssig-Szintillation gemessen (als Dreifach-Bestimmung).
The next series concerns 5-HT-induzierte Effekte. Particulars: 2007], cited from earlier work.

These results are taken from patent publication EP2550959A1 (priority 2011, dated 2013).

pIC50: −log10 of the molar value. Like-named read-outs stand apart in the source and are kept apart here.

5-HT2A Rezeptoren von Schweineherzkranzarterien, sequence (P50129 whole entry): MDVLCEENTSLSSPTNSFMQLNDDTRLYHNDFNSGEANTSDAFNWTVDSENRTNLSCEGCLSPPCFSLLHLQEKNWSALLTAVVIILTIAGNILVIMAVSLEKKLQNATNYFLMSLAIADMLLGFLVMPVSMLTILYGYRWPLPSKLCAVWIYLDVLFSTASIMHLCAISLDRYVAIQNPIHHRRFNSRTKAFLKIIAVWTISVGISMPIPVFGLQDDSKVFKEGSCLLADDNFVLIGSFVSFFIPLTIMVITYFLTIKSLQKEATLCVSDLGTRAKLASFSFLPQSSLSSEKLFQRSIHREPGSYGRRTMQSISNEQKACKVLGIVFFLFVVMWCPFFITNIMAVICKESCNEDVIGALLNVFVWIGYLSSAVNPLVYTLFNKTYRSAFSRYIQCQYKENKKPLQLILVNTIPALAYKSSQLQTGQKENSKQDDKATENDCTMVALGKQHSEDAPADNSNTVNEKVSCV
T1 sequence (F1SMV8 1-481): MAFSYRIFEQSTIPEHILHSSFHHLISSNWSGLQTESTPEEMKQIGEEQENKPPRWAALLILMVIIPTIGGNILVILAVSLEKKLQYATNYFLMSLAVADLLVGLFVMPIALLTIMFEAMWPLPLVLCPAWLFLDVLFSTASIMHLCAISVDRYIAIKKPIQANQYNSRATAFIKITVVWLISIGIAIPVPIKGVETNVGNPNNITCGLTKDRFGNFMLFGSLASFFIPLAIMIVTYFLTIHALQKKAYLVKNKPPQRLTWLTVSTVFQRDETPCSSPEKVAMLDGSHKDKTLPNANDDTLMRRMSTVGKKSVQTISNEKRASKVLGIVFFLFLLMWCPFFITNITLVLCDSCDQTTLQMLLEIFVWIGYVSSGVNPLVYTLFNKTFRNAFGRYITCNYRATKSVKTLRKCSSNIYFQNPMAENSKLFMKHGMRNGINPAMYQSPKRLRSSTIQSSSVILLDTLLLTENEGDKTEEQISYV

Regarding `CCN(CC)C(=O)NC1C=C2c3cccc4[nH]cc(c34)CC2NC1` (stereo not drawn) [6-Norlisurid], the “5-HT2B pA2” value in series [1] was 8.39 ± 0.12. This compound had a Kb in series [2] of 1.45 nM.
For `CCN(CC)C(=O)NC1CNC2Cc3c[nH]c4cccc(c34)C2C1` (stereo not drawn) [6-Nortergurid], in that order: 7.11 ± 0.08 and 14.1 nM.
As for `CCN(CC)C(=O)NC1CC2c3cccc4[nH]cc(c34)CC2N(C)C1` (stereo not drawn) [8β-Tergurid], the “5-HT2B pA2” value in series [1] was 8.39 ± 0.09. This compound gave a Kb in series [2] of 5.13 nM.
On to `CCN(CC)C(=O)N[C@H]1C=C2c3cccc4[nH]cc(c34)C[C@H]2N(C)C1` [Lisurid, 3-(9,10-didehydro-6-methylergoline-8alpha-yl)-1,1-diethylurea], for which the “freie Sauerstoffradikale, die ein Molekül aufnehmen kann” value in series [3] is on record as ≤ 6. The “Abbau von gelöstem Lisurid in Wasser” value in series [4] was “schnell zu Produkten abgebaut”.
In the case of `CCNC(=O)NC1C=C2c3cccc4[nH]cc(c34)CC2N(C)C1` (stereo not drawn) [N"-Monodesethyllisurid], the “5-HT2B pA2” value in series [1] is on record as 8.08 ± 0.05. The same compound showed a Kb in series [2] of 5.13 nM.
Taken in the same sequence, the figures for `CCNC(=O)NC1CC2c3cccc4[nH]cc(c34)CC2N(C)C1` (stereo not drawn) [N"-Monodesethyltergurid] were 7.30 ± 0.02 and 15.1 nM.
Take `Cc1cc(NC(=O)Nc2ccc3c(ccn3C)c2)sn1` [SB204741]: the “5-HT2B pA2” value in series [5] is 6.59 ± 0.20^d.
The term pIC50 denotes the IC50 on a negative log10 scale, so that one unit is a factor of ten. A high value points to a low IC50. In the case of `CCN(CC)C(=O)N[C@H]1C[C@@H]2c3cccc4[nH]cc(c34)C[C@H]2N(C)C1` [Tergurid, trans-Dihydrolisurid], the pIC50 in series [2] is 9.43. The RVPsys in series [6] (Monocrotaline (60 mg/kg s.c.) + 2.5 mg/kg bid by gavage) came to 39 ± 3 mmHG. In addition, the SAP in series [6] (Monocrotaline + 2.5 mg/kg bid, systemic arterial pressure) was found to be 111 ± 7 mmHG. Further, the Hydroxyproline in series [6] (lung, Monocrotaline + 2.5 mg/kg bid) was 2.7 ± 1.2 ug/g protein. The “Zellproliferation (3H -Thymidin-Aufnahme)” value in series [7] was “Reduktion der Zellproliferation”. Moreover, in series [3], the “freie Sauerstoffradikale, die ein Molekül aufnehmen kann” value is ≤ 4. Besides, in the series with 5-HT-induzierte Effekte (rat [Hauso O et al.), the “5-HT-induzierter Gewichtsanstieg von Herz und Leber” value is reported as “verhinderte” and the “Verhaltensabnormalitäten und fibrotische Hautveränderungen an den Injektionsorten von 5-HT” value is listed as “unterdrückte”. The “pulmonale Klappeninsuffizienz” value in the series with 5-HT-induzierte Effekte (rat, daily 5-HT over 4 months [Hauso O et al.) is on record as “nicht nachweisbar”.
With Oxtergurid, in series [1], the “5-HT2B pA2” value is reported as 6.42 ± 0.20. Moreover, the “5-HT2A pA2” value in series [2] (pig coronary arteries, conditions as in Beispiel 1) was 6.99 ± 0.04.
